pIC50: −log10 of the molar value.
These molecules were tested against human ACC2 (Homo sapiens (Human), UniProt O00763) (assay: ACC2 assay (spectrophotometric 384 well assay, NADH-linked kinetic method)). Conditions: hACC2 construct lacking 128 N-terminal amino acids, 25° C., 340 nm.
Chain of human ACC2 (O00763 129-2458): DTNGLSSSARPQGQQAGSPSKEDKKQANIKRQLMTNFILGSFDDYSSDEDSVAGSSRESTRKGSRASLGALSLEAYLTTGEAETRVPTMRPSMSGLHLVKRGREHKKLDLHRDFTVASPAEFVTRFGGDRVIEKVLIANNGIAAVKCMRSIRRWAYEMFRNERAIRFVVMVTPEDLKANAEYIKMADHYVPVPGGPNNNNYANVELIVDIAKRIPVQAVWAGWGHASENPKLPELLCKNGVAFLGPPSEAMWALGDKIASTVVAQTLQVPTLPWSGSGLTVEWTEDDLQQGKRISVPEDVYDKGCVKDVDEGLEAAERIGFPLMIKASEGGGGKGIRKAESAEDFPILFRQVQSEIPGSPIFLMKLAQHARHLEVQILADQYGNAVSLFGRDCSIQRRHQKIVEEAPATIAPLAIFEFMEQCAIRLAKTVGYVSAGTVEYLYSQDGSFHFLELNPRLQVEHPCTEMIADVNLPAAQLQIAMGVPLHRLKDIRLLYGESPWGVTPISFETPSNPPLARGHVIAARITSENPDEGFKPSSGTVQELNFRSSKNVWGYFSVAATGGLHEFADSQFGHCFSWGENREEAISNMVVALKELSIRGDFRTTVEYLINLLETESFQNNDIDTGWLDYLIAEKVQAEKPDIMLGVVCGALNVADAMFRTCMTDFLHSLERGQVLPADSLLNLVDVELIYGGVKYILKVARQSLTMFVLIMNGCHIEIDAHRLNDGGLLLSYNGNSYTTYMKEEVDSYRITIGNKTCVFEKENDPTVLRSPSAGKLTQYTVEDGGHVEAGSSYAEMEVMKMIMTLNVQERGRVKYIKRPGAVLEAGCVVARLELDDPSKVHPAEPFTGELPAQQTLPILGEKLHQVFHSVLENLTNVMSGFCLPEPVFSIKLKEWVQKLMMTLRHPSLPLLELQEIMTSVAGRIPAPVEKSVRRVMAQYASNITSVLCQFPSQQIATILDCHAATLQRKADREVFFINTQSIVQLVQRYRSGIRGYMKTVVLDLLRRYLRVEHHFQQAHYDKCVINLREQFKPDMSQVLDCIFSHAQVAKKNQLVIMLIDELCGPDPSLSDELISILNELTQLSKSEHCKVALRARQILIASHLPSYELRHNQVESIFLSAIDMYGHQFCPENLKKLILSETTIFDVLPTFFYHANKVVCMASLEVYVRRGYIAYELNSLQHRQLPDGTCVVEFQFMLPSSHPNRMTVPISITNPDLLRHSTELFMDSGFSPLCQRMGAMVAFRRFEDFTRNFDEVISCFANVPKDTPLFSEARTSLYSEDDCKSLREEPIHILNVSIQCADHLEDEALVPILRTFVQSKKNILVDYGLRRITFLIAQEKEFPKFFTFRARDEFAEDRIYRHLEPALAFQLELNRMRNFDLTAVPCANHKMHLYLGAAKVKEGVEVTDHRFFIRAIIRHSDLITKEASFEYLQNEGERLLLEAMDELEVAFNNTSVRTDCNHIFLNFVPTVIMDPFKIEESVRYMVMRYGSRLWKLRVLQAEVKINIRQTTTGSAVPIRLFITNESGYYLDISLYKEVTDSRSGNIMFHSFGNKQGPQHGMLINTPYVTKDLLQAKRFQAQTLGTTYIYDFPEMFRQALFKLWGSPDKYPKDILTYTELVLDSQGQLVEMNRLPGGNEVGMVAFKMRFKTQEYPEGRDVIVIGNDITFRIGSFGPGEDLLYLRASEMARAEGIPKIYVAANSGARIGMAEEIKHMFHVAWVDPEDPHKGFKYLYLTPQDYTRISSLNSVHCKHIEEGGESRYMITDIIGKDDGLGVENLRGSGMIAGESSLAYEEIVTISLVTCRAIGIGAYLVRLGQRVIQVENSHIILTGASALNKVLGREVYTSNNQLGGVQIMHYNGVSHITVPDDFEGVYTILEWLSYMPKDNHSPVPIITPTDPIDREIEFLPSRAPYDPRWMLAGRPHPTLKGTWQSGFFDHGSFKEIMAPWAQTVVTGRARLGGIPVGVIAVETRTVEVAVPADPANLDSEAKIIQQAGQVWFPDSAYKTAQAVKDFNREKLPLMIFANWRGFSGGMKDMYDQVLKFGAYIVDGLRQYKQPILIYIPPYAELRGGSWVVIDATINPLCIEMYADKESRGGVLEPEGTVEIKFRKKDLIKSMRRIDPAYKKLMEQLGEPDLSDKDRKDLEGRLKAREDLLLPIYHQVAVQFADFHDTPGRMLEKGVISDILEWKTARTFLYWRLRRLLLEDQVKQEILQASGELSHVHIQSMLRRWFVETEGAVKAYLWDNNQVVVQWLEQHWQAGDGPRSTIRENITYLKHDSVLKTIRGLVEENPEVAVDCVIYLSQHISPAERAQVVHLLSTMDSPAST
Assay type: biochemical
Description: Spectrophotometric 384 Well Assay
Malonyl CoA formation by acetyl CoA carboxylases is stoichometrically linked to the consumption of ATP. ACC2 activity is measured in a NADH-linked kinetic method measuring ADP generated during the ACC reaction using a coupled lactate dehydrogenase/pyruvate kinase reaction.
The protein is then expressed in insect cells using a baculoviral expression system. Protein purification is performed by anion exchange.
All compounds are dissolved in dimethyl sulfoxide (DMSO) to a concentration of 10 mM.
The enzymatic reaction is then started by addition of a mixture of NADH, acetyl Coenzyme A (both 200 μM f.c.) and ATP (500 uM f.c.). The decrease of the optical density (slope S) is then determined at 25° C. at a wavelength of 340 nm over 15 minutes in a spectrophotometric reader.
Each assay microtiter plate contains wells with vehicle instead of compound as controls for the non-inhibited enzyme (100% CTL; ‘HIGH’) and wells without acetyl-CoA as controls for non-specific NADH degradation (0% CTL; ‘LOW’).
C[C@H](NC(=O)c1cc[nH]n1)c1ccc(O[C@@H]2CCN(c3ccc(OCC4CC4)cc3)C2)cc1 [Example 2.13] was tested, and the pIC50 was 6.44. Molecule CCOc1cccc(N2CC[C@H](Oc3ccc([C@H](C)NC(C)=O)cc3)C2)c1 [Example 1.4] has a pIC50 of 6.29. Molecule CO[C@@H]1CN(c2ccc(OCC3CC3)cc2)CC1Oc1ccc([C@H](C)NC(C)=O)cc1 (some centres unmarked) [Example 1.51] has a pIC50 of 6.76. With C[C@H](NC(=O)C1CCC(=O)N1)c1ccc(O[C@@H]2CCN(c3ccc(OCC4CC4)cc3)C2)cc1 (some centres unmarked) [Example 2.2] the pIC50 was 6.17. In the case of C[C@H](NC(=O)N(C)C)c1ccc(OC2CCN(c3ccc(OC4CC4)cc3)C2)cc1 (some centres unmarked) [Example 1.64], the pIC50 was 6.97. C[C@H](NC(=O)c1cnn(C)c1N)c1ccc(O[C@@H]2CCN(c3ccc(OCC4CC4)cc3)C2)cc1 [Example 2.50] was tested, and the pIC50 was 7.19. Work on COc1cc(F)c(N2CCC(Oc3ccc([C@H](C)NC(C)=O)cc3)C2)cc1F (some centres unmarked) [Example 1.92] yielded a pIC50 of 6.42. C[C@H](NC(=O)c1cnc(N)s1)c1ccc(O[C@@H]2CCN(c3ccc(OCC4CC4)cc3)C2)cc1 [Example 2.43] showed a pIC50 of 6.80. Work on CC(=O)N[C@@H](C)c1ccc(OC2CCN(c3ccc(Cl)cc3)C2)cc1 (some centres unmarked) [Example 1.12] yielded a pIC50 of 6.05. COC(=O)N[C@@H](C)c1ccc(O[C@@H]2CCN(c3ccc(OCC4CC4)cc3)C2)cc1 [Example 5.1, Methyl-(S)-1-(4-((R)-1-(4-(cyclopropylmethoxy)phenyl)pyrrolidin-3-yloxy)phenyl)-ethylcarbamate] showed a pIC50 of 7.31. CC(=O)N[C@@H](C)c1ccc(OC2CCN(c3ccc4c(c3)COC4)C2)cc1 (some centres unmarked) [Example 1.75] gave a pIC50 of 6.15. For CCC(C)Oc1ccc(N2CCC(Oc3ccc([C@H](C)NC(C)=O)cc3)C2)cc1 (some centres unmarked) [Example 4.3], the pIC50 was 6.77. CC(=O)N[C@@H](C)c1ccc(OC2CCN(c3ccc(OC4CC4)cc3F)C2)cc1 (some centres unmarked) [Example 1.40] showed a pIC50 of 6.83. C[C@H](NC(=O)c1c[nH]nc1C(F)(F)F)c1ccc(O[C@@H]2CCN(c3ccc(OCC4CC4)cc3)C2)cc1 [Example 2.48] gave a pIC50 of 6.35. In the case of CCOc1ccc(N2CCC(Oc3ccc([C@H](C)NC(C)=O)cc3)C2)c(C)c1 (some centres unmarked) [Example 1.87], the pIC50 was 6.97. With CC(=O)N[C@@H](C)c1ccc(OC2CCN(c3ccc(OCCCF)cc3C)C2)cc1 (some centres unmarked) [Example 1.88] the pIC50 was 6.99. CC(=O)N[C@@H](C)c1ccc(OC2CCN(c3ccc(OCC4CC4)cc3F)C2)cc1 (some centres unmarked) [Example 1.10] gave a pIC50 of 6.64. CC(=O)N[C@@H](C)c1ccc(OC2CCN(c3ccc(OC(F)F)cc3)C2)cc1 (some centres unmarked) [Example 1.79] was tested, and the pIC50 was 6.30. C[C@H](NC(=O)c1cncs1)c1ccc(O[C@@H]2CCN(c3ccc(OCC4CC4)cc3)C2)cc1 [Example 2.38] gave a pIC50 of 7.77. Molecule CC(=O)N[C@@H](C)c1ccc(OC2CCN(c3ccc4c(c3C)OCCO4)C2)cc1 (some centres unmarked) [Example 1.83] has a pIC50 of 6.46. CCNC(=O)N[C@@H](C)c1ccc(OC2CCN(c3ccc(OCC4CC4)cc3)C2)cc1 (some centres unmarked) [Example 3.2] gave a pIC50 of 7.26. CC(=O)N[C@@H](C)c1ccc(OC2CCN(c3cc4c(cc3F)OCCCO4)C2)cc1 (some centres unmarked) [Example 1.36] was tested, and the pIC50 was 7.01. Work on CCC(=O)N[C@@H](C)c1ccc(O[C@@H]2CCN(c3ccc(OC(C)C)cc3)C2)cc1 [Example 2.20] yielded a pIC50 of 6.11. CC(=O)N[C@@H](C)c1ccc(OC2CCN(c3ccc(OCC4CC4(F)F)cc3)C2)cc1 (some centres unmarked) [Example 1.16] showed a pIC50 of 7.60. For CCC(=O)N[C@@H](C)c1ccc(O[C@@H]2CCN(c3ccc(OC4CC4)cc3C)C2)cc1 [Example 2.62], the pIC50 was 6.39. Molecule C[C@H](NC(=O)c1ccno1)c1ccc(O[C@@H]2CCN(c3ccc(OCC4CC4)cc3)C2)cc1 [Example 8.3] has a pIC50 of 7.21. For CCOc1ccc(N2CC[C@@H](Oc3ccc([C@H](C)NC(=O)c4sc(NC(=O)COCc5ccccc5)nc4C)cc3)C2)cc1 [Example 2.54], the pIC50 was 7.35. CNC(=O)c1cccc(C(=O)N[C@@H](C)c2ccc(O[C@@H]3CCN(c4ccc(OCC5CC5)cc4)C3)cc2)n1 [Example 2.14] was tested, and the pIC50 was 6.15. For CO[C@H]1CN(c2ccc(OCC3CC3)cc2)CC1Oc1ccc([C@H](C)NC(C)=O)cc1 (some centres unmarked) [Example 1.45], the pIC50 was 6.97. In the case of CC(=O)N[C@@H](C)c1ccc(OC2CCN(c3ccc(OCC(F)(F)C(F)F)cc3)C2)cc1 (some centres unmarked) [Example 4.7], the pIC50 was 6.20. CC(=O)N[C@@H](C)c1ccc(OC2CCN(c3ccc(OCC4CCCO4)cc3)C2)cc1 (some centres unmarked) [Example 1.21] was tested, and the pIC50 was 6.24. Work on C[C@H](NC(=O)Cc1cnccn1)c1ccc(O[C@@H]2CCN(c3ccc(OCC4CC4)cc3)C2)cc1 [Example 2.3] yielded a pIC50 of 6.40. CCC(=O)N[C@@H](C)c1ccc(O[C@@H]2CCN(c3ccc(OCC4CC4)cc3)C2)cc1 [Example 2.24] was tested, and the pIC50 was 7.40. CC(C)Oc1ccc(N2CCC(Oc3ccc([C@H](C)NC(=O)N(C)C)cc3)C2)cc1 (some centres unmarked) [Example 1.65] showed a pIC50 of 6.06. Molecule Cc1cc(CC(=O)N[C@@H](C)c2ccc(O[C@@H]3CCN(c4ccc(OCC5CC5)cc4)C3)cc2)on1 [Example 2.9] has a pIC50 of 6.86. With CC(=O)N[C@@H](C)c1ccc(OC2CCN(c3ccc4c(c3)CCO4)C2)cc1 (some centres unmarked) [Example 1.26] the pIC50 was 6.40. In the case of CC(=O)N[C@@H](C)c1ccc(OC2CCN(c3cccc(C)c3)C2)cc1 (some centres unmarked) [Example 1.55], the pIC50 was 6.67. With CCC(=O)Nc1nc(C)c(C(=O)N[C@@H](C)c2ccc(OC3CCN(c4ccc(OCC5CC5)cc4)C3)cc2)s1 (some centres unmarked) [Example 2.41] the pIC50 was 7.64. CC(=O)N[C@@H](C)c1ccc(OC2CCN(c3ccc(O[C@H]4CCOC4)cc3)C2)cc1 (some centres unmarked) [Example 1.97] showed a pIC50 of 6.61. CC(=O)N[C@@H](C)c1ccc(OC2CCN(c3cc(Cl)ccc3C)C2)cc1 (some centres unmarked) [Example 1.60] gave a pIC50 of 6.38. CC(=O)N[C@@H](C)c1ccc(OC2CCN(c3ccc(F)c(Cl)c3)C2)cc1 (some centres unmarked) [Example 1.54] was tested, and the pIC50 was 6.52. C[C@H](O)C(=O)N[C@@H](C)c1ccc(O[C@@H]2CCN(c3ccc(OCC4CC4)cc3)C2)cc1 [Example 2.30] was tested, and the pIC50 was 6.10. Molecule CC(=O)N[C@@H](C)c1ccc(OC2CCN(c3cccc(F)c3C)C2)cc1 (some centres unmarked) [Example 1.31] has a pIC50 of 6.04. CC(C#N)C(=O)N[C@@H](C)c1ccc(O[C@@H]2CCN(c3ccc(OCC4CC4)cc3)C2)cc1 (some centres unmarked) [Example 2.23] gave a pIC50 of 7.25. For COc1ccc(N2CCC(Oc3ccc([C@H](C)NC(C)=O)cc3)C2)cc1F (some centres unmarked) [Example 1.93], the pIC50 was 6.22. Molecule C[C@H](NC(=O)Cc1cc[nH]c1)c1ccc(O[C@@H]2CCN(c3ccc(OCC4CC4)cc3)C2)cc1 [Example 2.12] has a pIC50 of 6.40. Work on CC(=O)NC(C)c1ccc(OC2CCN(c3ccc(OCC4CC4)cc3)C2)nc1 (centres unmarked) [Example 1.56] yielded a pIC50 of 6.53. CCCOc1ccc(N2CCC(Oc3ccc([C@H](C)NC(C)=O)cc3)C2)c(OC)c1 (some centres unmarked) [Example 1.9] was tested, and the pIC50 was 5.94. CC(=O)N[C@@H](C)c1ccc(OC2CCN(c3ccc(C)c(Cl)c3)C2)cc1 (some centres unmarked) [Example 1.52] showed a pIC50 of 6.22. In the case of CC(=O)N[C@@H](C)c1ccc(OC2CCN(c3ccc(OCCCF)cc3)C2)cc1 (some centres unmarked) [Example 1.70], the pIC50 was 7.28. Work on Cc1cc(OC2CC2)ccc1N1CCC(Oc2ccc([C@H](C)NC(=O)N(C)C)cc2)C1 (some centres unmarked) [Example 1.68] yielded a pIC50 of 6.25. COc1ccc(N2CCC(Oc3ccc([C@H](C)NC(C)=O)cc3)C2)cc1 (some centres unmarked) [Example 1.24] was tested, and the pIC50 was 6.23. Molecule C[C@H](NC(=O)C1CC[C@@H](N)C1)c1ccc(O[C@@H]2CCN(c3ccc(OCC4CC4)cc3)C2)cc1 (some centres unmarked) [Example 9] has a pIC50 of 5.76. In the case of CC(C)Oc1ccc(N2CCC(Oc3ccc([C@H](C)NC(=O)N4CCOCC4)cc3)C2)cc1 (some centres unmarked) [Example 3.12], the pIC50 was 5.89. For CC(=O)N[C@@H](C)c1ccc(OC2CCN(c3cccc(Cl)c3)C2)cc1 (some centres unmarked) [Example 1.53], the pIC50 was 6.69. In the case of CC(=O)Nc1nc(C)c(C(=O)N[C@@H](C)c2ccc(OC3CCN(c4ccc(OCC5CC5)cc4)C3)cc2)s1 (some centres unmarked) [Example 2.1], the pIC50 was 7.40. For CCCOc1ccc(N2CCC(Oc3ccc([C@H](C)NC(C)=O)cc3)C2)c(C#N)c1 (some centres unmarked) [Example 1.13], the pIC50 was 6.81. In the case of C[C@H](NC(=O)c1cnn(C)c1)c1ccc(O[C@@H]2CCN(c3ccc(OCC4CC4)cc3)C2)cc1 [Example 2.11], the pIC50 was 6.88. CC(=O)N[C@@H](C)c1ccc(OC2CCN(c3ccc(OC4CC4)cc3C)C2)cc1 (some centres unmarked) [Example 1.25] gave a pIC50 of 7.07. CC(=O)N[C@@H](C)c1ccc(O[C@H]2CCN(c3ccc(OCC4CC4)cc3)C2)cc1 [Example 1.48] gave a pIC50 of 6.74. Work on CC(=O)N[C@@H](C)c1ccc(OC2CCN(c3ccc(OCC4CC4)cc3)C2)cn1 (stereo partly drawn) [Example 7.1, N—((S)-1-(5-((R)-1-(4-(Cyclopropylmethoxy)phenyl)pyrrolidin-3-ylox)pyridin-2-yl)ethyl)acetamide] yielded a pIC50 of 5.75. For CC(=O)N[C@@H](C)c1ccc(OC2CCN(c3ccc4c(c3)OC(F)(F)O4)C2)cc1 (some centres unmarked) [Example 1.80], the pIC50 was 6.24. For C[C@H](NC(=O)C1CC1)c1ccc(O[C@@H]2CCN(c3ccc(OCC4CC4)cc3)C2)cc1 [Example 8.1, N—((S)-1-(4-((R)-1-(4-(Cyclopropylmethoxy)phenyl)pyrrolidin-3-yloxy)phenyl)-ethyl)-cyclopropanecarboxamide], the pIC50 was 6.43. CC(=O)N[C@@H](C)c1ccc(OC2CCN(c3ccc(Oc4cnccn4)cc3)C2)cc1 (some centres unmarked) [Example 1.69] gave a pIC50 of 6.36. COCCOC1CN(c2ccc(OCC3CC3)cc2)CC1Oc1ccc([C@H](C)NC(C)=O)cc1 (some centres unmarked) [Example 1.77] was tested, and the pIC50 was 6.13. Molecule COc1cc(OCC2CC2(F)F)ccc1N1CCC(Oc2ccc([C@H](C)NC(C)=O)cc2)C1 (some centres unmarked) [Example 1.57] has a pIC50 of 6.35. CC(=O)N[C@@H](C)c1ccc(OC2CCN(c3cc(Cl)ccc3Cl)C2)cc1 (some centres unmarked) [Example 1.58] gave a pIC50 of 6.45. C[C@H](NC(=O)C1(C)CC1)c1ccc(O[C@@H]2CCN(c3ccc(OCC4CC4)cc3)C2)cc1 [Example 2.10] showed a pIC50 of 7.10.

Source: patent publication US9169205B2, “Pyrrolidine derivatives, pharmaceutical compositions and uses thereof” (Boehringer Ingelheim International GmbH, priority 2012, dated 2015)
